Results: patent EP2954896A1, “Small molecule inhibitors of the E3 Ligase Skp2 in depression and other diseases” (Max-Planck-Gesellschaft zur Förderung der Wissenschaften …, priority 2014, dated 2015)

Assays:
Beclin1 mRNA = Beclin1 mRNA expression by qPCR in rat cortical astrocytes; format: cell-based; conditions: 10µM for 72h; vehicle set to 1
Protocol: Enriched astroglial cultures were prepared from postnatal day 1 rat pups (Sprague-Dawley, Charles River, Sulzfeld, Germany) and handled as described by Attwood BK et al. (2011) Nature 473: 372-375 and Hartmann J et al. (2012) Neuropharmacology 62: 332-339.
Total RNA was isolated from astroglial cells according to the manufacturer's protocol of NucleoSpin RNA II (Macherey-Nagel, Germany). In total, 300 ng of purified RNA was reverse transcribed using random primers (Promega) and Omniscript® Reverse Transcriptase (Qiagen). Based on the LightCycler® System (Roche Applied Science, Germany) and SYBR green detection (QuantiFast® SYBR Green; Qiagen), quantitative assessment of Beclin1 cDNA levels were performed. b-Actin PCR was performed serving as endogenous control for normalization. The primers used were: for Beclin1: antisense - 5'-[…]-3' sense - 5'-[…]-3'; and for β-Actin: antisense - 5'-[…]-3', sense-5'-[…]-3'. Relative changes of gene expression were calculated using the comparative ΔΔCT method (Livak and Schmittgen, METHODS 25, 402-408, 2001). Detection of viral RNA by real-time PCR was as recently described (Corman et al. (2014) Journal of Clinical Virology 60: 168-171).
Beclin1 mRNA expression levels were determined by qPCR. HEK cells were treated either with proteasome inhibitor MG132 or with vehicle for 5h and Beclin1 protein levels were determined by Western analysis. Furthermore Co-immunoprecipitations were performed with Beclin1 antibody in HEK cell lysates with ectopic Ub-GFP.

[1] = Chronic PAR treatment after chronic social defeat stress: behavioral tests (open field, social avoidance, forced swim); format: in vivo; conditions: FKBP51-deleted versus wild type mice
From the text: After cessation of the stressor, groups were subdivided into vehicle-treated and paroxetine-treated animals, resulting in 8 groups (n = 7-13 per group). The treatment phase lasted for three weeks. The behavioral tests took place during the last week of the paroxetine treatment. The CSDS paradigm lasted for 21 days. Briefly, the experimental mice were introduced into the home cage (45 cm x 25 cm) of a dominant resident mouse and defeated shortly after. When the defeat was achieved, the animals were separated by a wire mesh, preventing physical but allowing sensory contact for 24 h. Each day, stressed animals were defeated by another unfamiliar, dominant resident mouse in order to exclude a repeated encounter throughout the experiment. The daily defeat was performed between 11:00 and 16:00 h; varying starting times reduced the predictability of the stressor and therefore minimized a potential habituation effect. […] Both stress and control animals were handled daily during the stress procedure; body weight for all mice was assessed at the beginning of the experiment, after the cessation of the stress period, and on the day of killing. […] All tests were analyzed using an automated videotracking system (Anymaze 4.20, Stoelting, Wood Dale, IL). […] Time spent immobile (floating) and time spent struggling was scored by an experienced observer, blind to treatment or condition of the animals.

autophagy markers = experiment: Autophagy markers in protein extracts of hippocampus and prefrontal cortex after acute antidepressant injection; format: in vivo, mice; conditions: 10 mgkg-1
Protocol: Western blot analysis was performed on eluates from ColPs or with protein extracts from cells or tissue. Protein extracts were obtained by lysing cells or tissue (prelysed as described in the paragraph before) in 62.5 mM Tris, 2% SDS and 10% sucrose, supplemented with protease (Sigma, P2714) and phosphatase (Roche, 04906837001) inhibitor cocktail. Samples were sonicated and heated at 95 °C for 5 min. Proteins were separated by SDS-PAGE and electro-transferred onto nitrocellulose membranes. Blots were placed in Tris-buffered saline, supplemented with 0.05% Tween (Sigma, P2287) and 5% non-fat milk for 1 h at room temperature and then incubated with primary antibody (diluted in TBS/0.05% Tween) overnight at 4 °C. The following primary antibodies were used: Beclin1 (1:1000, Cell Signaling, #3495), Atg12 (1:1000, Cell Signaling #2010), LC3B-I/II (1:1000, Cell Signaling, #2775), FLAG (1:7000, Rockland, 600-401-383), FKBP51 (1:1000, Bethyl, A301-430A), Akt (1:1000, Cell Signaling, #4691), pAkt (1:1000, Ser473, T308, 1:1000, Cell Signaling, #4058, #9275), Actin (1:5000, Santa Cruz Biotechnologies, sc-1616), Skp2, myc (Addgene, 19947), GFP (santa cruz biotechnologies, sc-8334), p27 (cell signaling technologies, 3686), pULK,(S757, cell signaling technologies, 6888) APP-CTF (sigma-aldrich, A8717), DNMT1 (1:1000, Imgenex, IMG-261A), phospho-DNMT1 (S154), (1:1000, Abnova, PAB4924), ptau (S622; Santa Cruz Biotechnologies, #sc-16938).
Subsequently, blots were washed and probed with the respective horseradish peroxidase- or fluorophore-conjugated secondary antibody for 1 h at room temperature. The immuno-reactive bands were visualized either using ECL detection reagent (Millipore, Billerica, MA, USA, WBKL0500) or directly by excitation of the respective fluorophore. Determination of the band intensities were performed with BioRad, ChemiDoc MP, or X-ray-films.
The Fkbp51^-/- mouse line was previously generated (Touma C et al. (2011) Biol. Psychiatry 70: 928-936) and fully backcrossed to C57/BI6. […] Hippocampus and prefrontal cortex were extracted.

[2] = Fkbp51+/+ mice, hippocampus and prefrontal cortex

Fc1ccc([C@@H]2CCNC[C@H]2COc2ccc3c(c2)OCO3)cc1 [PAR, paroxetine]
Beclin1 mRNA expression level (Beclin1 mRNA): do not change Beclin1-mRNA
enhancing struggling and reducing floating, forced swim test [1]: significantly less effective
level of Atg12 (autophagy markers; [2]): increased
level of Beclin1 (autophagy markers; [2]): increased
level of Vps34 (autophagy markers; [2]): increased
phosphorylation of the kinase Akt (pAktS473) (autophagy markers; [2]): evoked dephosphorylation
protein levels of autophagy markers and pAktS473 (autophagy markers; Fkbp51-/- mice, either brain region): no alterations
